Results on two compounds are retold here after patent publication US11555036B2, “FGFR4 inhibitor, preparation method therefor and pharmaceutical use thereof” (Abbisko Therapeutics Co., Ltd., priority 2016, dated 2023).

The target in one experiment is FGFR4 (Homo sapiens, UniProt P22455). As to the kind of experiment: FGFR4 Caliper Assay (in vitro biochemical kinase analysis of FGFR4). The note with it: read-out: Enzymatic activity FGFR4 IC50. The gist of the method:
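Kinase reaction at 30° C for 40 min in 50 mM HEPES pH 7.5, 16 mM MgCl2, 1 mM DTT, 0.6% DMSO, stopped with EDTA. Phosphorylated and unphosphorylated fluorescent peptides separated by Caliper microfluidic mobility shift. IC50 by non-linear regression of percent inhibition.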

The subject of experiment [1] is Huh7 hepatocellular carcinoma cells. Description: FGFR4 cell proliferation experiment, Cell Titer Glo (CTG). The format is cell-based. Particulars: Homo sapiens, Huh-7, 72 h, HuH-7 cells, 3 days; for IC50: concentration leading to absolute half growth inhibition; for EC50: concentration leading to half maximal growth inhibition. The gist of the method: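 Cells treated with 5-fold serial dilutions starting at 10 μM for 3 days at 37° C, 5% CO2. Proliferation/survival quantified as cellular ATP by CellTiter-Glo luminescence.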
In general terms: In ATP-based viability assays light output follows the ATP content of the culture.

Sequence of FGFR4 (P22455 22-802): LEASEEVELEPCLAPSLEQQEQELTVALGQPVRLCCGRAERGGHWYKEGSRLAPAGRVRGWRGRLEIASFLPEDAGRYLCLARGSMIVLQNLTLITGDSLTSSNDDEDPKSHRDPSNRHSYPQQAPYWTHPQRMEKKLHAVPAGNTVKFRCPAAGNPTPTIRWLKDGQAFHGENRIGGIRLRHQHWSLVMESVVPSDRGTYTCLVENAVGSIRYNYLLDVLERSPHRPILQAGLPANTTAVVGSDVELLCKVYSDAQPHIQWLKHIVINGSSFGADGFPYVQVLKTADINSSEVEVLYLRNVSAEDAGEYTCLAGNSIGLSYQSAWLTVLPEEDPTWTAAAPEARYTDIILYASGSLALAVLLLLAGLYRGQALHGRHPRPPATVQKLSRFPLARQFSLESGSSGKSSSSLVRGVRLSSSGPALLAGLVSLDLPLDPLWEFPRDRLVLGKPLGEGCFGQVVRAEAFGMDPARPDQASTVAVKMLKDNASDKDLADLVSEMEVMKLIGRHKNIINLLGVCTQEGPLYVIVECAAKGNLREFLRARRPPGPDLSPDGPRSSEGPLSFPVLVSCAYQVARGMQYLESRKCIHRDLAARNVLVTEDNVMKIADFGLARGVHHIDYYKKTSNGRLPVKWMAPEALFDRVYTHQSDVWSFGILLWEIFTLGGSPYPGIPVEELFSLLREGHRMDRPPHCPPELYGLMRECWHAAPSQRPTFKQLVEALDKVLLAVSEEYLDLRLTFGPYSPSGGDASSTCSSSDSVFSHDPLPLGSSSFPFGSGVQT

In general, IC50 refers to the concentration that gives 50% inhibition. As a reminder, the EC50 is the concentration that produces a half-maximal response. Consider `C=CC(=O)N[C@H]1COC[C@H]1Nc1ncc2cc(-c3c(Cl)c(OC)cc(OC)c3Cl)nc(N3CC4CC(C3)O4)c2n1` [Example 762, N-((3R,4S)-4-((8-(6-oxa-3-aza-bicyclo[3.1.1]heptan-3-yl)-6-(2,6-di-chloro-3,5-dimethoxyphenyl)pyrido[3,4-d]pyrimidin-2-yl)amino)tetrahydro-furan-3-yl)acrylamide], for which the IC50 at FGFR4 is 5.2 nM. Besides, in experiment [1], the half-inhibitory concentration (IC50) was 4.2 nM and the EC50 worked out at 3.2 nM.

With `C=CC(=O)N[C@H]1COC[C@H]1Nc1ncc2cc(-c3c(F)c(OC)cc(OC)c3F)nc(NC)c2n1` [Example 764, N-((3R,4S)-4-((6-(2,6-difluoro-3,5-dimethoxyphenyl)-8-(methylamino)py-rido[3,4-d]pyrimidin-2-yl)amino)tetra-hydrofuran-3-yl)acrylamide], the IC50 at FGFR4 worked out at 7 nM. In experiment [1], this compound had an IC50 of 60.4 nM and an EC50 of 49.4 nM.
